Entries after “also recorded” stand apart in the source; their conditions may differ.
How the values were obtained:
Type in all cases: in vivo
Conditions in all cases: aged male mice (21-24 months), daily subcutaneous BAPN for 4 weeks, vs saline
α-Klotho = assay: BAPN daily injection in aged mice, α-Klotho immunofluorescence in chondrocytes
Description: (§1) Aged male C57/BL6 mice (21-24 months; body mass) received daily subcutaneous injections of either saline, as a control, or BAPN (290 μg/μ1 in saline) for 4 weeks every day. Volume of the injection (40-80 μl) was determined based on mice body mass (m) with following protocol: 40 μl (18.45 g≤m≤23.73 g), 50 μl (23.73 g≤m≤29.00 g), 60 ul (29.00 g≤m≤34.27 g), 70 μl (34.27 g≤m≤39.55 g), 80 μl (39.55 g≤m≤44.82 g). Mice were weighed every other day beginning on day 0 and ending on day 28 to ensure proper dosage of BAPN.
Immunofluorescence analysis for tissue section and/or cell-seeded pAAm gel was performed to determine the signal intensity of type II collagen, α-Klotho, Lamin A/C, and Lamin B2 in accordance with established protocol (Sahu, et al., 2018, supra). Briefly, after a triple wash by PBS, cells were permeabilized with 0.1% triton-X (Fluka 93420) for 15 minutes, followed by a one-hour blocking step using 0.1% triton-X with 3% Bovine Serum Albumin (BSA, Sigma A7906) in PBS. The cells were then incubated with primary antibodies for overnight at 4° C. A similar process was followed for the decalcified tissue paraffin. […]
Slides were imaged using a Zeiss Observer Z1 semi-confocal microscope. […] All images for quantitative analysis in a given experiment were taken under the same imaging conditions. Fluorescence intensity was quantified using Image J

[1] = test system: medial tibial cartilage of aged male C57/BL6 mice; assay: BAPN daily injection in aged mice, cartilage histology (OARSI score)
Description: as §1
Mice knee joints and human cartilage samples were fixed in 4% paraformaldehyde overnight at 4° C., and decalcified in 20% ethylene diamine tetra acetic acid solution for 10 days. Decalcified paraffin sections (5 μm thickness) were prepared from central region of the mice knee joints in the frontal plane in accordance with the OARSI recommendation (Glasson, et al., Osteoarthritis Cartilage 18 Suppl 3, S17-23 (2010)). Decalcified paraffin sections from human cartilage specimen were also prepared. […] The OARSI scoring system, consisting of six grades and four stages on a scale from 0 (normal) to 24 (severe cartilage lesion), was used for semi-quantitative evaluation of cartilage lesion severity (Pritzker, et al., Osteoarthritis Cartilage 14, 13-29 (2006)). The most severe score was evaluated as the maximum OARSI score. […]

[2] = test system: chondrocyte nuclear morphology; assay: BAPN daily injection in aged mice, chondrocyte nuclear morphology (CellProfiler, PCA)
Description: as §1
DAPI and F-actin images were obtained at 63× and 20× magnification using a Zeiss Observer Z1 semi-confocal microscope, respectively. Afterwards, image processing and morphome feature extraction were performed using CellProfiler software (v4.0, The Broad Institute) (Carpenter et al., Genome Biol 7, R100 (2006)). Fifty-three shape features of cell and nuclei were determined using the “identify primary objects” followed by the “measure object size shape” and “export to spread sheet” module. Principal Component Analysis (PCA) was performed for the data reduction identifying the principal components (PCs) that represent the differences in the cellular and nuclear morphology. To determine variables of cellular and nuclear shape contributing to PCs, loading matrix, a correlation between the original variable and PCs, were extracted.

SMILES: N#CCCN [BAPN, β-aminopropionitrile]
- α-Klotho expression in chondrocytes (α-Klotho): significantly increased α-Klotho levels; also recorded: increased α-Klotho expression; also recorded: improves α-Klotho expression
- cartilage integrity (OARSI score) [1]: improves cartilage integrity
- nuclear eccentricity of chondrocytes [2]: decreased nuclear eccentricity; also recorded: decreases nuclear eccentricity towards young level

Source: patent publication US20210330760A1, “METHODS AND MATERIALS FOR TREATING OSTEOARTHRITIS” (University of Pittsburgh - Of the Commonwealth System of …, priority 2020, published 2021)
